Test results published in patent US12077503B2, “Substituted cyclic amides and their use as herbicides” (FMC CORPORATION, priority 2015, dated 2024).
Like-named read-outs stand apart in the source and are kept apart here.

Key:
Assay type in all cases: in vivo
[1] = system: rice (Oryra sativa); assay: Test B flooded paddy test; details: Oryza sativa, Flood, 250 g ai/ha; scale of 0 to 100 where 0 is no effect and 100 is complete control; read-out: Rice plant response rating
Outline: (§1)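 Greenhouse paddy pots with 2-leaf stage plants received compound by direct addition to floodwater 3 cm deep, kept at that level. Scored visually at 13–15 d versus controls (0 no effect; 100 complete control).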

[2] = system: ducksalad (Heteranthera limosa); assay: Test B flooded paddy test; details: Heteranthera limosa, Flood, 250 g ai/ha; scale of 0 to 100 where 0 is no effect and 100 is complete control; read-out: Ducksalad plant response rating
Outline: as §1

[3] = system: barnyardgrass (Echinochloa crus-galli); assay: Test B flooded paddy test; details: Echinochloa crus-galli, Flood, 250 g ai/ha; scale of 0 to 100 where 0 is no effect and 100 is complete control; read-out: Barnyardgrass plant response rating
Outline: as §1

[4] = system: sedge, umbrella (small-flower umbrella sedge, Cyperus difformis); assay: Test B flooded paddy test; details: Cyperus difformis, Flood, 250 g ai/ha; scale of 0 to 100 where 0 is no effect and 100 is complete control; read-out: Sedge, Umbrella plant response rating
Outline: as §1

[5] = system: giant foxtail (Setaria faberii); assay: Test A preemergence; details: Setaria faberi, pre-emergence, 240 h, read-out: Plant response rating, Foxtail, Giant; for pest or weed control at 125 g/ha: 125 g ai/ha, visual rating after approx. 10 d, 0 to 100 scale where 0 is no effect and 100 is complete control; for pest or weed control at 31 g/ha: Preemergence, 31 g ai/ha, 0 to 100 scale (0 no effect, 100 complete control)
Outline: (§2)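 Compounds were formulated in a non-phytotoxic solvent mixture with surfactant and applied as a preemergence directed soil spray after seeding, or sprayed postemergence over plants 2 to 10 cm tall at the one- to two-leaf stage. Evaluation after about 10 d compared treated with untreated controls, using a scale from 0 (no effect) to 100 (complete control).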

[6] = system: pigweed (Amaranthus retroflexus); assay: Test A preemergence; details: Amaranthus retroflexus, pre-emergence, 240 h, read-out: Plant response rating, Pigweed; for pest or weed control at 125 g/ha: 125 g ai/ha, visual rating after approx. 10 d, 0 to 100 scale where 0 is no effect and 100 is complete control; for pest or weed control at 31 g/ha: Preemergence, 31 g ai/ha, 0 to 100 scale (0 no effect, 100 complete control)
[7] = system: ragweed (common ragweed, Ambrosia elatior); assay: Test A preemergence; details: Ambrosia artemisiifolia, pre-emergence, 240 h, read-out: Plant response rating, Ragweed; for pest or weed control at 125 g/ha: 125 g ai/ha, visual rating after approx. 10 d, 0 to 100 scale where 0 is no effect and 100 is complete control; for pest or weed control at 31 g/ha: Preemergence, 31 g ai/ha, 0 to 100 scale (0 no effect, 100 complete control)
Outline: as §2

[8] = system: ryegrass, Italian (Italian ryegrass, Lolium multiflorum); assay: Test A preemergence; details: Lolium multiflorum, pre-emergence, 240 h, read-out: Plant response rating, Ryegrass, Italian; for pest or weed control at 125 g/ha: 125 g ai/ha, visual rating after approx. 10 d, 0 to 100 scale where 0 is no effect and 100 is complete control; for pest or weed control at 31 g/ha: Preemergence, 31 g ai/ha, 0 to 100 scale (0 no effect, 100 complete control)
Outline: as §2

[9] = system: Kochia (Kochia scoparia); assay: Test A preemergence; details: Bassia scoparia, pre-emergence, 240 h, read-out: Plant response rating, Kochia; for pest or weed control at 125 g/ha: 125 g ai/ha, visual rating after approx. 10 d, 0 to 100 scale where 0 is no effect and 100 is complete control; for pest or weed control at 31 g/ha: Preemergence, 31 g ai/ha, 0 to 100 scale (0 no effect, 100 complete control)
Outline: as §2

[10] = system: barnyardgrass (Echinochloa crus-galli); assay: Test A preemergence; details: Echinochloa crus-galli, pre-emergence, 240 h, read-out: Plant response rating, Barnyardgrass; for pest or weed control at 125 g/ha: 125 g ai/ha, visual rating after approx. 10 d, 0 to 100 scale where 0 is no effect and 100 is complete control; for pest or weed control at 31 g/ha: Preemergence, 31 g ai/ha, 0 to 100 scale (0 no effect, 100 complete control)
Outline: as §2

[11] = system: corn (Zea mays); assay: Test A postemergence; details: Zea mays, post-emergence, 240 h; for Corn plant response rating (crop injury, 0 = no effect, 100 = complete kill) at 125 g/ha: visual injury after approximately 10 d, 0 to 100 scale (0 no effect, 100 complete control); for Corn plant response rating (crop injury, 0 = no effect, 100 = complete kill) at 31 g/ha: Postemergence, 31 g ai/ha, visual injury after approx. 10 d, 0 to 100 scale, 100 complete control
Outline: as §2

[12] = system: pigweed (Amaranthus retroflexus); assay: Test A postemergence; details: Amaranthus retroflexus, post-emergence, 240 h; for pest or weed control at 125 g/ha: 125 g ai/ha, postemergence; for pest or weed control at 31 g/ha: Postemergence, 31 g ai/ha, visual injury after approx. 10 d, 0 to 100 scale, 0 no effect, 100 complete control
Outline: as §2

[13] = system: Galium (catchweed bedstraw, Galium aparine); assay: Test A postemergence; details: Galium, post-emergence, 240 h; for pest or weed control at 125 g/ha: 125 g ai/ha, postemergence; for pest or weed control at 31 g/ha: Postemergence, 31 g ai/ha, visual injury after approx. 10 d, 0 to 100 scale, 0 no effect, 100 complete control
Outline: as §2

[14] = system: Kochia (Kochia scoparia); assay: Test A postemergence; details: Bassia scoparia, post-emergence, 240 h; for pest or weed control at 125 g/ha: 125 g ai/ha, postemergence; for pest or weed control at 31 g/ha: Postemergence, 31 g ai/ha, visual injury after approx. 10 d, 0 to 100 scale, 0 no effect, 100 complete control
Outline: as §2

[15] = visual injury after approximately 10 d, 0 to 100 scale (0 no effect, 100 complete control), read-out: Plant response rating, Pigweed
[16] = read-out: Plant response rating, Pigweed
[17] = visual injury after approximately 10 d, 0 to 100 scale (0 no effect, 100 complete control), read-out: Plant response rating, Galium
[18] = read-out: Plant response rating, Galium
[19] = visual injury after approximately 10 d, 0 to 100 scale (0 no effect, 100 complete control), read-out: Plant response rating, Kochia
[20] = read-out: Plant response rating, Kochia
[21] = 500 g ai/ha, preemergence, 0 to 100 scale, 0 = no effect, 100 = complete control

Row | Structure (SMILES) | pest or weed control at 250 g/ha [1] [%] | pest or weed control at 250 g/ha [2] [%] | pest or weed control at 250 g/ha [3] [%] | pest or weed control at 250 g/ha [4] [%] | pest or weed control at 125 g/ha ([5]; preemergence) [%] | pest or weed control at 31 g/ha [5] [%] | pest or weed control at 125 g/ha ([6]; preemergence) [%] | pest or weed control at 31 g/ha [6] [%] | pest or weed control at 125 g/ha ([7]; preemergence) [%] | pest or weed control at 31 g/ha [7] [%] | pest or weed control at 125 g/ha ([8]; preemergence) [%] | pest or weed control at 31 g/ha [8] [%] | pest or weed control at 125 g/ha ([9]; preemergence) [%] | pest or weed control at 31 g/ha [9] [%] | pest or weed control at 125 g/ha ([10]; preemergence) [%] | pest or weed control at 31 g/ha [10] [%] | Corn plant response rating (crop injury, 0 = no effect, 100 = complete kill) at 125 g/ha ([11]; 125 g ai/ha, postemergence) [%] | Corn plant response rating (crop injury, 0 = no effect, 100 = complete kill) at 31 g/ha [11] [%] | pest or weed control at 125 g/ha [12, 15] [%] | pest or weed control at 31 g/ha [12, 16] [%] | further results
1 | Cc1cc([C@H]2CN(C)C(=O)[C@@H]2C(=O)Nc2ccccc2F)cc(C)c1C [Compound 797] | 25 | 90 | 90 | 0 | 90 | 90 | 20 | 0 | 0 | 0 | 50 | 0 | 20 | 0 | 90 | 80 | 70 | 60 | 20 | 0 | pest or weed control at 125 g/ha [13, 17]: 30%; pest or weed control at 31 g/ha [13, 18]: 0%; pest or weed control at 125 g/ha [14, 19]: 0%; pest or weed control at 31 g/ha [14, 20]: 0%
2 | O=C1NC[C@H](c2ccc(C3CC3)cc2)[C@H]1C(=O)Nc1ccccc1F [Compound 727] | 25 | 75 | 0 | 0 | 80 | – | 0 | – | 0 | – | 0 | – | 0 | – | 70 | – | 0 | – | 0 | – | pest or weed control at 500 g/ha [5, 21]: 90%; pest or weed control at 500 g/ha [6, 21]: 0%; pest or weed control at 500 g/ha [7, 21]: 0%; pest or weed control at 500 g/ha [8, 21]: 0%; pest or weed control at 500 g/ha [9, 21]: 0%; pest or weed control at 500 g/ha [10, 21]: 90%; pest or weed control at 125 g/ha [13, 17]: 0%; pest or weed control at 125 g/ha [14, 19]: 0%
3 | CN1C[C@H](c2ccc(C(F)(F)F)c(Br)c2)[C@@H](C(=O)Nc2cccc(F)c2F)C1=O [Compound 804] | 60 | 80 | 30 | 0 | 80 | 70 | 60 | 0 | 0 | 0 | 50 | 40 | 20 | 0 | 90 | 70 | – | 0 | – | 50 | plant injury at 125 g/ha ([11]; 125 g ai/ha, postemergence, visual injury rating after approximately 10 d, read-out: Corn plant response rating (0 to 100 scale, 0 no effect, 100 complete control)): 50%; pest or weed control at 125 g/ha ([12]; visual injury rating after approximately 10 d, read-out: Pigweed plant response rating (0 to 100 scale, 0 no effect, 100 complete control)): 60%; pest or weed control at 125 g/ha ([13]; visual injury rating after approximately 10 d, read-out: Galium plant response rating (0 to 100 scale, 0 no effect, 100 complete control)): 50%; pest or weed control at 31 g/ha [13, 18]: 40%; pest or weed control at 125 g/ha ([14]; visual injury rating after approximately 10 d, read-out: Kochia plant response rating (0 to 100 scale, 0 no effect, 100 complete control)): 70%; pest or weed control at 31 g/ha [14, 20]: 40%
4 | Cc1cc(F)cc([C@H]2CN(C)C(=O)[C@@H]2C(=O)Nc2cccc(F)c2C#N)c1 [Compound 800] | 30 | 95 | 95 | 0 | 90 | 80 | 20 | 0 | 0 | 0 | 40 | 0 | 0 | 0 | 90 | 80 | 20 | 0 | 40 | 20 | pest or weed control at 125 g/ha [13, 17]: 30%; pest or weed control at 31 g/ha [13, 18]: 0%; pest or weed control at 125 g/ha [14, 19]: 0%; pest or weed control at 31 g/ha [14, 20]: 0%
